In experiment [1] the test system is Raji cells. As to the kind of experiment: In vitro cytotoxicity (potency) against Raji cells, WST-8 cell viability assay. The format is cell-based. As to conditions: Homo sapiens, 120 h, read-out: IC50 values towards Raji cells. The method, then:
In Vitro Potency Measurement Against Raji Cells in 37° C., 5 Day Incubation
(§1) General Procedure Used: Samples of unconjugated free drug compounds or drug conjugates were added to 96-well flat bottomed tissue culture plates and titrated using serial dilutions to cover the desired molar range. Antigen positive (Ag^+) or Antigen negative (Ag^−) cells were added to the wells in specific cell densities (1000˜10000 cells/wall) in such a way that there were triplicate samples for each drug concentration for each corresponding cell line. All other cell lines were grown in RPMI-1640 (catalog no. 11875-085, Invitrogen), supplemented with 10% fetal bovine serum and gentamycin. The plates were then incubated at 37° C. in an atmosphere of 5% CO2 for 5 days. At the end of the incubation period cytotoxic potencies were then assessed using a WST-8 based cell viability assay and surviving cells were measured by developing with WST-8 (2-7 hours). The absorbance in each well was measured and the surviving fraction of cells at each concentration was plotted to reveal the cytotoxicity and/or antigen specificity (of the conjugates). The potency and specificity of the antibody-drug conjugates were measured against antigen-expressing cells, with and without the additions of an excess amount of blocking unconjugated antibody to show specificity of the killing effect.

Experiment [2] relates to Ramos cells. Description: In vitro cytotoxicity (potency) against Ramos cells, WST-8 cell viability assay. As to conditions: Homo sapiens, 120 h, read-out: IC50, in vitro potency against Ramos cells. The format is cell-based. Here is the method:
In Vitro Potency Measurement Against Ramos Cells in 37° C., 5 Day Incubation
as §1
On the technique in general: Tetrazolium assays rely on reduction of a dye to a coloured formazan, in cell work by metabolically active cells.

In general, IC50 refers to the concentration that gives 50% inhibition.

As for `C=C1C[C@H]2C=Nc3cc(OCCP(=O)(CCOc4cc5c(cc4OC)C(=O)N4CC(=C)C[C@H]4C=N5)CCSSC)c(OC)cc3C(=O)N2C1` [Example 39], the IC50 in experiment [1] was in the range of 5 to 11 pM.
Take `COc1cc2c(cc1OCP(=O)(COc1cc3c(cc1OC)C(=O)C1C[C@@H](F)C[C@H]1C=N3)NCCCSSc1ccccn1)N=C[C@@H]1C[C@H](F)CC1C2=O` (some centres unmarked) [Example 68]: the IC50 in experiment [2] fell in the range of 100 to 500 pM.

The values are drawn from US9988408B2, “Cytotoxic agents for conjugation to a cell binding molecule” (priority 2013, dated 2018).
